Test: xn = mol fraction of the nth substance listed

CCCCCCO + CCCCCCC
viscosity [mPa·s], 101.33 kPa
Settings	x1 = 0.0567	x1 = 0.1134	x1 = 0.2217	x1 = 0.3279	x1 = 0.4307	x1 = 0.5294	x1 = 0.6292	x1 = 0.7248	x1 = 0.8643	x1 = 0.9526
298.15 K	0.4405	0.4541	0.5473	0.6831	0.8745	1.142	1.523	2.047	2.93	3.788
308.15 K	0.396	0.4021	0.4788	0.5863	0.7378	0.9541	1.201	1.574	2.299	2.921

CC(C)CC(C)(C)C + COC(=O)OC
viscosity [mPa·s], 101 kPa
Settings	x2 = 0.1235	x2 = 0.2408	x2 = 0.3521	x2 = 0.4583	x2 = 0.5592	x2 = 0.6554	x2 = 0.7475	x2 = 0.8352	x2 = 0.9193
293.15 K	0.4747	0.4613	0.4659	0.4672	0.4798	0.4974	0.5114	0.5331	0.5636
298.15 K	0.4464	0.4356	0.44	0.4397	0.4483	0.4637	0.4815	0.5015	0.5303
303.15 K	0.4224	0.4116	0.4159	0.4143	0.4231	0.4353	0.4517	0.4719	0.5004
313.15 K	0.3788	0.3706	0.373	0.3699	0.3779	0.3929	0.4049	0.4201	0.4475
323.15 K	0.3424	0.3338	0.3339	0.3344	0.3399	0.3487	0.3616	0.376	0.3958

CC(=O)CC(C)C + CCCCCO
viscosity [mPa·s]
Settings	x1 = 0.1011	x1 = 0.1974	x1 = 0.304	x1 = 0.4023	x1 = 0.5022	x1 = 0.6064	x1 = 0.7079	x1 = 0.7955	x1 = 0.8962
298.15 K, 101 kPa	2.47	1.89	1.46	1.2	1	0.856	0.738	0.668	0.592
298.15 K, 101.3 kPa	2.47	1.89	1.46	1.2	1	0.856	0.738	0.668	0.592
303.15 K, 101.3 kPa	2.2	1.7	1.32	1.1	0.919	0.792	0.694	0.624	0.558
308.15 K, 101.3 kPa	1.96	1.53	1.2	1.01	0.846	0.735	0.646	0.589	0.53
313.15 K, 101.3 kPa	1.75	1.38	1.09	0.915	0.781	0.683	0.601	0.555	0.501

CCCCCC(=O)O + CC(C)[C@@H]1CC[C@@H](C)C[C@H]1O
Settings	viscosity [mPa·s]
298 K, 101 kPa, x2 = 0.333	8.9

CCCCCCCCCCCCCC[P+](CCCCCC)(CCCCCC)CCCCCC.c1nnc[n-]1 + O=C=O
Settings	viscosity [mPa·s]
298.15 K, 100 kPa, x2 = 0.5	638

Cc1cn([C@H]2CC(O)[C@@H](CO)O2)c(=O)[nH]c1=O (some centres not stated) + O
viscosity [mPa·s], 101.3 kPa
Settings	x1 = 9.02e-05	x1 = 0.000159	x1 = 0.0002266	x1 = 0.0003081	x1 = 0.0004541	x1 = 0.0004775
298.15 K	0.893	0.894	0.895	0.897	0.899	0.9
308.15 K	0.721	0.722	0.723	0.724	0.726	0.727
318.15 K	0.598	0.598	0.599	0.6	0.602	0.602

C=C(C)[C@@H]1CC=C(C)CC1 + C=CC(C)(O)CCC=C(C)C
viscosity [mPa·s], 101.33 kPa
Settings	x1 = 0.0422	x1 = 0.1332	x1 = 0.2273	x1 = 0.3523	x1 = 0.4816	x1 = 0.562	x1 = 0.6389	x1 = 0.7679	x1 = 0.8478	x1 = 0.9236
298.15 K	4.062	3.237	2.695	2.072	1.626	1.429	1.282	1.101	1.013	0.933
313.15 K	2.37	2.025	1.731	1.427	1.196	1.086	0.998	0.877	0.814	0.755

C=C(C)[C@@H]1CC=C(C)CC1 + CCCCCC
298.15 K, 101.33 kPa
Settings	viscosity [mPa·s]
x2 = 0.0279	0.825
x2 = 0.0568	0.806
x2 = 0.113	0.759
x2 = 0.2079	0.686
x2 = 0.2991	0.622
x2 = 0.4219	0.549
x2 = 0.5543	0.477
x2 = 0.6701	0.421
x2 = 0.7542	0.386
x2 = 0.8966	0.334
x2 = 0.9273	0.326
x2 = 0.972	0.305

— the CheMixHub viscosity set
